# Assay results reported in ChEMBL document CHEMBL1201862, “PubChem BioAssay data set” (2004).
# Calls of active or inactive are those of the source.
# Legend:
# cells [1] = format: functional, cell-based
# [2] = Luminescence Cell-Based Dose Response HTS to Identify Activators of Luciferase Translation or Activity in H4 […] Cells. [Related pubchem assays: 1829 (Project Summary), 1814 (Primary HTS)]; format: functional
# [3] = molecular target: T1, Nuclear receptor subfamily 0 group B member 1 (Homo sapiens, UniProt P51843); format: functional, cell-based;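 note: HEK293T cells transfected with SF-1 and DAX-1 plus StAR promoter luciferase reporter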
# T1 sequence (P51843 whole entry): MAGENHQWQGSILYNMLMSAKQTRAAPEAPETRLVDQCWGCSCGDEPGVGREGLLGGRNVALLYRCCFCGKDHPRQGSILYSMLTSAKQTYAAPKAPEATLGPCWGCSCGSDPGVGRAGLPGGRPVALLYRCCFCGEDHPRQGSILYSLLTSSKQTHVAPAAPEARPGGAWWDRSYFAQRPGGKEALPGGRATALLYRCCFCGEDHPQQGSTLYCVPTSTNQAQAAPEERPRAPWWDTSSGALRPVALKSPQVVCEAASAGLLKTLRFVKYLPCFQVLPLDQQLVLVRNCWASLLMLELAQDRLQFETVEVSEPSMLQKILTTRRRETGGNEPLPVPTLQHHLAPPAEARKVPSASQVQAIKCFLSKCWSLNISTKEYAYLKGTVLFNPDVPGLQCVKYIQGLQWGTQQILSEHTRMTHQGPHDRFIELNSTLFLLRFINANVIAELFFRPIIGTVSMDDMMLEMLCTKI
# [4] = molecular target: T2, Endoribonuclease toxin MazF (Escherichia coli K-12, UniProt P0AE70); experiment: fluorescent RNA oligo signal without MazF, dose response, counter-screen for MazEF activator project, biochemical, fluorescence, single-stranded RNase substrate (AID 588502); format: functional
# T2 sequence (P0AE70 whole entry): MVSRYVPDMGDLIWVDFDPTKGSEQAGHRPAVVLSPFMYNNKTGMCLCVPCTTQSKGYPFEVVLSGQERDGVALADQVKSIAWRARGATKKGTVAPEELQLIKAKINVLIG
# H4 = experiment: Luminescence Cell-Based Dose Response HTS to Identify Activators of 5'UTR Stem-Loop Driven Prion Protein mRNA Translation in H4 Neuroglioblastoma Cells. [Related pubchem assays: 1829 (Project Summary), 1814 (Primary HTS)]; format: functional; settings: Homo sapiens
# [5] = molecular target: T2, Endoribonuclease toxin MazF; experiment: MazF toxin RNase activators, dose response, biochemical, fluorescence, single-stranded RNA substrate, uHTS hits (AID 588481); format: functional
# Streptococcus = experiment: Group A Streptococcus viability loss, dose response, counter-screen for streptokinase expression inhibitor project, luminescence, BacTiterGlo (AID 1915); format: functional, organism-based;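 note: potency for reduction of bacterial viability or growth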
# [6] = Luminescence Cell-Based Dose Confirmation HTS to Identify Activators of 5'UTR Stem-Loop Driven Alpha-Synuclein mRNA Translation in H4 Neuroglioblastoma Cells. [Related pubchem assays: 1829 (Project Summary), 1814 (Primary HTS)]; format: functional
# [7] = test system: Streptococcus sp. 'group A'; experiment: growth inhibition of control SK(-) GAS strain, dose response, counter-screen for streptokinase expression inhibitor project, luminescence, kanamycin, BacTiterGlo, confirmation (AID 1900); format: functional, organism-based
# cells [8] = format: functional, cell-based; remark: listed apart in the source
# [9] = molecular target: Induced myeloid leukemia cell differentiation protein Mcl-1 (Homo sapiens, UniProt Q07820); format: functional
# [10] = molecular target: T3, Trace amine-associated receptor 1 (Homo sapiens, UniProt Q96RJ0); experiment: Fluorescence-based cell-based high throughput dose response assay to identify agonists of the human trace amine associated receptor 1 (TAAR1).; format: functional
# T3 sequence (Q96RJ0 whole entry): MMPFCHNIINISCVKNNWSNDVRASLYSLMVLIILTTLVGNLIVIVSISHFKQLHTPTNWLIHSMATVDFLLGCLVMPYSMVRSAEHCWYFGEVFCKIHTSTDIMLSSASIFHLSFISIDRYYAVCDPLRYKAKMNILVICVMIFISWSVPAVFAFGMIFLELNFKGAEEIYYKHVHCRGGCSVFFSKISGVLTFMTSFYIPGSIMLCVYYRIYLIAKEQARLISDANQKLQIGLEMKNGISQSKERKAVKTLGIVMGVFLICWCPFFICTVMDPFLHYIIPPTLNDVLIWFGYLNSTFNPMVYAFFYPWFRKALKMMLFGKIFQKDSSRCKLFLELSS
# [11] = molecular target: T3, Trace amine-associated receptor 1; experiment: Counterscreen for agonists of the human trace amine associated receptor 1 (hTAAR1): Fluorescence-based cell-based high throughput dose response assay to identify hTAAR1 agonist that also desensitize TAAR1 receptor response.; format: functional
# cells [12] = format: functional, cell-based; remark: listed apart in the source
# [13] = molecular target: T4, Sentrin-specific protease 8 (Homo sapiens, UniProt Q96LD8); format: functional
# T4 sequence (Q96LD8 whole entry): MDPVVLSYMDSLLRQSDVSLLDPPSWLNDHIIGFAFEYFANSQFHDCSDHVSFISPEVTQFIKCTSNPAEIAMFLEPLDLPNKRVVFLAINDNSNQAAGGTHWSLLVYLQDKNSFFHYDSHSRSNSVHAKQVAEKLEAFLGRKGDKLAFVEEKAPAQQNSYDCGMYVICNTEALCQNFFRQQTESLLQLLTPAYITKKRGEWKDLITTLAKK
# [14] = molecular target: T4, Sentrin-specific protease 8; format: functional; remark: listed apart in the source
# [15] = molecular target: T5, Probable nicotinate-nucleotide adenylyltransferase (Staphylococcus aureus (strain N315), UniProt P65502); format: functional, Staphylococcus aureus subsp. aureus N315; settings: read-out: IC50_Mean;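 for IC50 Mean: confirmatory dose-response retesting of NadD inhibitor hits first found in an ultra-high-throughput screen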
# [16] = molecular target: T6, Rac GTPase-activating protein 1 (Homo sapiens, UniProt Q9H0H5); experiment: MgcRacGAP GTPase-activating activity inhibitors, confirmation, biochemical, ADP Hunter fluorescence, primary and confirmatory (AID 624330); format: functional
# T6 sequence (Q9H0H5 whole entry): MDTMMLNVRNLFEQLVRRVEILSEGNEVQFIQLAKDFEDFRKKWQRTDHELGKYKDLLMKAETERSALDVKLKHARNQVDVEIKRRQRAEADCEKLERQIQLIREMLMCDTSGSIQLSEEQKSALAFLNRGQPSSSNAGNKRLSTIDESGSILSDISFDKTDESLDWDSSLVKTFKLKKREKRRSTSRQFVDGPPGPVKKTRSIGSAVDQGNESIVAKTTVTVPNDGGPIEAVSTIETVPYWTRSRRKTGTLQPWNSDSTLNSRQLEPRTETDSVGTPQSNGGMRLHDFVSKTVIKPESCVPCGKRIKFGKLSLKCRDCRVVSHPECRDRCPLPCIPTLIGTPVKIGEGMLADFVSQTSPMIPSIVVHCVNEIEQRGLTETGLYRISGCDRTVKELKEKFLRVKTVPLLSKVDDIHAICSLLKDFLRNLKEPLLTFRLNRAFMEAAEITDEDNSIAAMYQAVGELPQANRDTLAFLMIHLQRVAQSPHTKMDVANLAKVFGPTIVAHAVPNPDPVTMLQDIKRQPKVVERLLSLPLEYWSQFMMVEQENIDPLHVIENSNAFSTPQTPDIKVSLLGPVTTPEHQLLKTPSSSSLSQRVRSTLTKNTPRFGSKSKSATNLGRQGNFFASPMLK
# [17] = molecular target: T5, Probable nicotinate-nucleotide adenylyltransferase; format: functional, Staphylococcus aureus subsp. aureus N315
# [18] = molecular target: T7, Heat shock factor protein 1 (Mus musculus, UniProt P38532); experiment: HSF1 potentiators in luciferase reporter cells, confirmation, cell-based, NIH3T3, luminescence, dose retest (AID 435004); format: functional;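 note: stress induced by proteasome inhibitor MG132 added 30 min after compound; luciferase reporter driven by HSF1 response element in NIH3T3 cells; actives raise luminescence as potentiators of the MG132 stress response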
# T7 sequence (P38532 whole entry): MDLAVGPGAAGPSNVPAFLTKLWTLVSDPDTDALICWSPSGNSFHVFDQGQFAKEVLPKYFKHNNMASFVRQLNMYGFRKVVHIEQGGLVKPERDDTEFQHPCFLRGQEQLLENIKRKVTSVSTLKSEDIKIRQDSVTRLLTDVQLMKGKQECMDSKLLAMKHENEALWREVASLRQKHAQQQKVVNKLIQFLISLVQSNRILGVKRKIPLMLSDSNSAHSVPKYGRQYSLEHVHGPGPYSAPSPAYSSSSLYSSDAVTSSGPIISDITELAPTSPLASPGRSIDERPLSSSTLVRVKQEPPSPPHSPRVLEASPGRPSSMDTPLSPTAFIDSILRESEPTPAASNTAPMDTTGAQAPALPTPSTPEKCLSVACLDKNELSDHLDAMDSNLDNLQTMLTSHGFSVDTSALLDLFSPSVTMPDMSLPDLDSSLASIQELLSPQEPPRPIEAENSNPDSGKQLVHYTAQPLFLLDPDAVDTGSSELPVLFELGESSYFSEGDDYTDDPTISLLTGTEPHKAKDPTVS
# Genome polyprotein = Genome polyprotein (dengue virus type 2, UniProt P29990); experiment: Dengue-2 NS5 methyltransferase inhibitors, primary screen, biochemical, confirmation dose response (AID 588689); format: functional
# [19] = molecular target: T8, Carboxy-terminal domain RNA polymerase II polypeptide A small phosphatase 1 (Homo sapiens, UniProt Q9GZU7); experiment: inhibitors of CTDSP1, concentration-response testing, biochemical assay, absorbance-based, actives from ultra-high-throughput screening (AID 540297); format: functional
# T8 sequence (Q9GZU7 whole entry): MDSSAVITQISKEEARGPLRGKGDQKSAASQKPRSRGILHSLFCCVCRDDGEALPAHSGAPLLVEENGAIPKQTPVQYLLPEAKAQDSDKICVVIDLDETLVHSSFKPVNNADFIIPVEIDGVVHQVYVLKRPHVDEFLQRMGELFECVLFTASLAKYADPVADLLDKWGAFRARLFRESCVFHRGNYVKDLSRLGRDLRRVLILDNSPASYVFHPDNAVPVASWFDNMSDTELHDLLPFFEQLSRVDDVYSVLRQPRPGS
# [20] = molecular target: DNA (cytosine-5)-methyltransferase 1 (Homo sapiens, UniProt P26358); experiment: DNMT1 methyltransferase inhibitors, confirmation, biochemical, fluorescent molecular beacon (AID 602386); format: functional
# [21] = molecular target: Glucose-6-phosphate 1-dehydrogenase (Homo sapiens, UniProt P11413); experiment: human G6PD enzyme inhibitors, dose response, selectivity assay for P. falciparum G6PD inhibitor project, biochemical, fluorescence (AID 504792); format: functional
# NS3 = NS3 (Hepatitis C virus, UniProt A3EZJ3); experiment: PubChem AID 2173; parameters: species or system Hepacivirus hominis
# [22] = molecular target: T9, Small ubiquitin-related modifier 1 (Homo sapiens, UniProt P63165); experiment: inhibitors of SUMO1 peptide binding, dose response, biochemical, fluorescence polarization, uHTS hits (AID 624382); format: functional; settings: read-out: IC50_Mean
# [23] = molecular target: T9, Small ubiquitin-related modifier 1; experiment: inhibitors of SUMO1 partner interactions, dose response, biochemical, FRET (AID 624383); format: functional; settings: read-out: IC50_Mean
# Albumin = Albumin (Bos taurus, UniProt P02769); experiment: Counterscreen for inhibitors of T-cell receptor (TCR)-CD3 interaction: Fluorescence-based biochemical high throughput dose response assay to identify inhibitors of T-cell receptor (TCR)-CD3 interaction using a TAMRA-labeled BSA probe.; format: functional
# Albumin, sequence (P02769 whole entry): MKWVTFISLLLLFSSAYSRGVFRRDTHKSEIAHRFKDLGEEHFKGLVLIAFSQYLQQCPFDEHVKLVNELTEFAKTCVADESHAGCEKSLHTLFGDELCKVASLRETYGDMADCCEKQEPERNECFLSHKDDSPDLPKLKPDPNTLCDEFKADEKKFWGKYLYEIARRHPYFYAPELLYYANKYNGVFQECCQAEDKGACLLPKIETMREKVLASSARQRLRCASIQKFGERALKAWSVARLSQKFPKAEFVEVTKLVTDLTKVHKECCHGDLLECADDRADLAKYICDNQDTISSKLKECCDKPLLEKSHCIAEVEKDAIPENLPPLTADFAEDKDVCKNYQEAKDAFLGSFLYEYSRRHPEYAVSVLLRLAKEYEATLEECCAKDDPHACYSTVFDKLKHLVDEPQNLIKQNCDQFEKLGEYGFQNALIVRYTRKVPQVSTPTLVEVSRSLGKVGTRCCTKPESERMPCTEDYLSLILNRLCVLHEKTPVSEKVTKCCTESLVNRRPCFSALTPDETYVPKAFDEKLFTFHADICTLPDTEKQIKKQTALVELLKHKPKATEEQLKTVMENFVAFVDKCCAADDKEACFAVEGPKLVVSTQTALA
# T9 sequence (P63165 whole entry): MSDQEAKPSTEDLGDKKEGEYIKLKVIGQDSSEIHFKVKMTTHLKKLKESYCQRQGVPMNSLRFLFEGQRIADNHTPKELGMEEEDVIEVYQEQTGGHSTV
# Induced myeloid leukemia cell differentiation protein Mcl-1, sequence (Q07820 whole entry): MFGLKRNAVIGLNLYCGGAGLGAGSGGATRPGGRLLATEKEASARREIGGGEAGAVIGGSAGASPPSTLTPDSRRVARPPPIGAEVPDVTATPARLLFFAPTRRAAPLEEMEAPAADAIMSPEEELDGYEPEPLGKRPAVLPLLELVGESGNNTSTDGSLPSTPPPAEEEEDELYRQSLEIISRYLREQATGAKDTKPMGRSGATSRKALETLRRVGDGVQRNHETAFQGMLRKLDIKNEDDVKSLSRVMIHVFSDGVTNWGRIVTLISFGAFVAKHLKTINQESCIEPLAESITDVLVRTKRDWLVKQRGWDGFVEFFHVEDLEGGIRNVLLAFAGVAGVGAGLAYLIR
# T5 sequence (P65502 whole entry): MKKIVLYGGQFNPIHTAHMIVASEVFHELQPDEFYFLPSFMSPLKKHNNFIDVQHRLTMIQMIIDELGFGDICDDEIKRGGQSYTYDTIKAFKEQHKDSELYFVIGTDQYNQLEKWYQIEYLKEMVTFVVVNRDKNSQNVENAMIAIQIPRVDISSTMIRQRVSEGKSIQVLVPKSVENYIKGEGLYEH
# Genome polyprotein, sequence (P29990 2492-3391 limits assumed): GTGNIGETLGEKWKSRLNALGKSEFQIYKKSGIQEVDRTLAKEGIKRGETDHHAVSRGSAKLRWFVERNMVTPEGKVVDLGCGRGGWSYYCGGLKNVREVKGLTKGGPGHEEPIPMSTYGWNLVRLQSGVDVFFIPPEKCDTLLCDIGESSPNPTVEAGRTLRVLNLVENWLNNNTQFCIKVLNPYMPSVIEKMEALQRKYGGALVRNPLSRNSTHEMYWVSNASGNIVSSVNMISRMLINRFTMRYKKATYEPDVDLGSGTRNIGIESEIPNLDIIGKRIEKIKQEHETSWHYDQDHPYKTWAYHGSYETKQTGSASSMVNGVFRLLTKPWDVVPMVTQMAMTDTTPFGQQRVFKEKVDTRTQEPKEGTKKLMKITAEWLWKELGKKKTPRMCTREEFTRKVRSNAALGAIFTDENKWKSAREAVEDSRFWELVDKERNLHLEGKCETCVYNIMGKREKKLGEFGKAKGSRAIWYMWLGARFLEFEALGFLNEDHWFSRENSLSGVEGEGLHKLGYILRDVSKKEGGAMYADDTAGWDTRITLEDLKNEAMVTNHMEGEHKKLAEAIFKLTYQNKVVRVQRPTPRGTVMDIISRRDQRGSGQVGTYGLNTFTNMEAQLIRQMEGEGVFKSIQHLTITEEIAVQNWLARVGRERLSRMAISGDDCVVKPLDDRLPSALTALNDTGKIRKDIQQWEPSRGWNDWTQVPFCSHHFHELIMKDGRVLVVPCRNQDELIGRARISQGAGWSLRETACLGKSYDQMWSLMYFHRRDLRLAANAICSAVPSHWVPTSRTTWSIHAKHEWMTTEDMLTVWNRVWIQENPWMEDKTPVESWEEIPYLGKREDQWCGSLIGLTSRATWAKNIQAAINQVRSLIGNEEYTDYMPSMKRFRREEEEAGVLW
# DNA (cytosine-5)-methyltransferase 1, sequence (P26358 whole entry): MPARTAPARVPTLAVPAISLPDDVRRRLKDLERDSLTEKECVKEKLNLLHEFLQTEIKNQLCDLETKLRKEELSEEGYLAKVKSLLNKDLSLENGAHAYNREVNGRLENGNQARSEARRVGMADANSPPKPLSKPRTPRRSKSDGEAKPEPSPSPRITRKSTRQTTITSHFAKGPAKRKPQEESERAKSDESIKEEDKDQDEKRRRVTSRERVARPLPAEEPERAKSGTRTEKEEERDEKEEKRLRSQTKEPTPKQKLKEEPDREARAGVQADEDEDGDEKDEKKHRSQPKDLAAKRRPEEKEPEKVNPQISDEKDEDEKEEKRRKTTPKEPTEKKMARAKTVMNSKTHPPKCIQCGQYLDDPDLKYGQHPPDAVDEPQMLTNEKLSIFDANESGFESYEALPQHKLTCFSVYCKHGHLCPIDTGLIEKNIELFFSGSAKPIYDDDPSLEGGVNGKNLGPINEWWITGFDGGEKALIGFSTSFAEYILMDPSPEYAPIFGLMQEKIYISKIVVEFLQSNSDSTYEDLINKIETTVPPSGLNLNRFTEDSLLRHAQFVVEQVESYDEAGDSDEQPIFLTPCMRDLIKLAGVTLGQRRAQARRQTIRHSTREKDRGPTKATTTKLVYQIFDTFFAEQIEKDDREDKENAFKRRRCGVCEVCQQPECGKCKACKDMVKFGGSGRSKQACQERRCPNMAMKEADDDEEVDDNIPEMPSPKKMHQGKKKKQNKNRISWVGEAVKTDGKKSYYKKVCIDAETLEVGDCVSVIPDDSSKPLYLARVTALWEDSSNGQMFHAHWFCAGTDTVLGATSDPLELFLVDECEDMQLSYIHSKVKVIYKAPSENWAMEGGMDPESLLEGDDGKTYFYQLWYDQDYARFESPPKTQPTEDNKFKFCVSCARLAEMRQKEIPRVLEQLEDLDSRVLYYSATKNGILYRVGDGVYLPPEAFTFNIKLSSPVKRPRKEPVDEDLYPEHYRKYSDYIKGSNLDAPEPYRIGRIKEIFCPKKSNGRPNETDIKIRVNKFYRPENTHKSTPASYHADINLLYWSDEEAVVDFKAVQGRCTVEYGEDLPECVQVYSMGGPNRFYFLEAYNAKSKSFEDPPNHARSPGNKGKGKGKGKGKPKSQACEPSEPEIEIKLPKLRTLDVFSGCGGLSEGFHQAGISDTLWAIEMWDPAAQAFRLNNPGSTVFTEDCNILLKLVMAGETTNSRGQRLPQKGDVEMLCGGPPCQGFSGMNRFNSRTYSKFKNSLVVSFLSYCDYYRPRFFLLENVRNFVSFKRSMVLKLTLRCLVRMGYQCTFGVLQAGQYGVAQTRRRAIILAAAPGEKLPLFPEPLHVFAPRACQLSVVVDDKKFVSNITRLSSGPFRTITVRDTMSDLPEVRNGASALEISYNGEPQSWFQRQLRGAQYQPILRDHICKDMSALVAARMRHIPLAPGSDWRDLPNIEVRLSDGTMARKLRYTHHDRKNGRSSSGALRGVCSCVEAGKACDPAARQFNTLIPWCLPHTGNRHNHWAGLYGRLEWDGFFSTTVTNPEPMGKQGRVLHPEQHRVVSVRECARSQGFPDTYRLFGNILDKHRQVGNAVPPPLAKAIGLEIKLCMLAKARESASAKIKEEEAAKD
# NS3, sequence (A3EZJ3 whole entry): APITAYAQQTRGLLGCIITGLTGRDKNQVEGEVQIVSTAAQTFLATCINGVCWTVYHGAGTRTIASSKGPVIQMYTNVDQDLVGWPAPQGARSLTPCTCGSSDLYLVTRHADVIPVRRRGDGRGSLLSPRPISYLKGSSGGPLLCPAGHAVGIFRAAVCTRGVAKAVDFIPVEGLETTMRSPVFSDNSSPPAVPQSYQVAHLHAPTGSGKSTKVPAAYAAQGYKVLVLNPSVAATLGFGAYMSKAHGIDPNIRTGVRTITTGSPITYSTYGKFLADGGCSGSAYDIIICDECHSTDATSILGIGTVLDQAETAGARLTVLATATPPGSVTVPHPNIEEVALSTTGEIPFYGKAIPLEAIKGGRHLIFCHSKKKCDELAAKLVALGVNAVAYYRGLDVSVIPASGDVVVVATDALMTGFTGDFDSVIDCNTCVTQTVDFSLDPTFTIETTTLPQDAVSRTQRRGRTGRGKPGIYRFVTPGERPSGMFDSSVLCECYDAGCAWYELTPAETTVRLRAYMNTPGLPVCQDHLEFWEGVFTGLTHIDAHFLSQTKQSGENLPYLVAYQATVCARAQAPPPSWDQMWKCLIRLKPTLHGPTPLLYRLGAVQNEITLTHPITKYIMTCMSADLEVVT
# Glucose-6-phosphate 1-dehydrogenase, sequence (P11413 whole entry): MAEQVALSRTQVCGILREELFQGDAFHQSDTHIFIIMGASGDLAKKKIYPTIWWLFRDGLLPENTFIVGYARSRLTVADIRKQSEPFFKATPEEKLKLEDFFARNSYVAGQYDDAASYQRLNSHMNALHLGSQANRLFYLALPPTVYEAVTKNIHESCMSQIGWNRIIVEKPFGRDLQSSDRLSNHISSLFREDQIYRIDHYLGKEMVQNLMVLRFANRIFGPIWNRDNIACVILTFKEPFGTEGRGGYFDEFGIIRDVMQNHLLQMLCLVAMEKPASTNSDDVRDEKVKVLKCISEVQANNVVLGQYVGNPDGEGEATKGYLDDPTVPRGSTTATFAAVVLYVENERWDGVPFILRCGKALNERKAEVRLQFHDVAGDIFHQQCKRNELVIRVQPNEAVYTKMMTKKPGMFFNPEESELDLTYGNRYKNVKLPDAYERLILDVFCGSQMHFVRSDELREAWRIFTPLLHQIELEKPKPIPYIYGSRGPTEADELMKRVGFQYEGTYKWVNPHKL
structure (smiles),measurement,setting,value
Cc1ccc2nc(N3C(=O)C(O)=C(C(=O)c4ccco4)C3c3cccs3)sc2c1 (stereo unspecified),IC50,cells [1],> 67.5 µM (inactive)
same,EC50,[2],> 120 µM (not active)
same,IC50,[3],> 67.5 µM (inactive)
same,EC50,[4],> 99 µM (inactive)
same,EC50,H4,> 120 µM (not active)
same,EC50,[5],> 99 µM (inactive)
same,EC50,Streptococcus,4.98 µM (active)
same,EC50,[6],> 120 µM (not active)
same,EC50,[7],2.82 µM (active)
COCCn1nnnc1C(c1ccc(O)c(OC)c1)N1CCc2ccccc2C1 (stereo unspecified),EC50,cells [8],> 29.9 µM (inactive)
same,IC50,[9],7.06 µM (active)
same,EC50,[10],0.695 µM (active)
same,IC50,[11],3.75 µM (active)
same,IC50,cells [12],> 29.9 µM (inactive)
COc1cccc(C2=NOC(C(=O)N3CCc4ccccc4C3)C2)c1 (stereo unspecified),IC50,[13],45.2 µM (active)
same,IC50,[14],9.21 µM (active)
Cc1ccc(/C=C/C(=O)Nc2ccc([N+](=O)[O-])c(NC(=O)/C=C/c3ccc(C)o3)c2)o1,IC50,[15],15.3 µM (active)
same,IC50,[16],165 µM (active)
same,IC50,[9],2.12 µM (active)
same,IC50,[17],5.24 µM (active)
same,EC50,[18],228 µM (active)
same,IC50,Genome polyprotein,> 100 µM (active)
same,IC50,[19],5.89 µM (active)
same,IC50,[20],7.18 µM (active)
same,IC50,[21],> 80 µM (inactive)
same,IC50,NS3,41.3 µM (not active)
O=C(CC1C(=O)NCCN1CCCc1ccccc1)NCCc1ccccc1F (stereo unspecified),EC50,cells [8],> 29.9 µM (inactive)
same,EC50,[10],1.71 µM (active)
same,IC50,[11],7.17 µM (active)
same,IC50,cells [12],> 29.9 µM (inactive)
C/C(=N/NC(=O)c1cccs1)c1cccc(N)c1,IC50,cells [1],> 67.6 µM (inactive)
same,IC50,[3],> 67.6 µM (inactive)
Cc1ccc(C2(C)NC(=O)N(CC(=O)Nc3ccc4[nH]c(=O)[nH]c4c3)C2=O)cc1 (stereo unspecified),IC50,[22],> 66.6 µM (inactive)
same,IC50,[23],16.5 µM (active)
O=C(CSc1ccc(-c2ccncc2)nn1)c1ccc(Cl)cc1,IC50,[22],> 66.6 µM (inactive)
same,IC50,[23],12.1 µM (active)
CC1=NN(c2ccc(C)cc2C)C(=O)C1C(c1ccccc1O)C1C(=O)N(c2ccc(C)cc2C)N=C1C (stereo unspecified),IC50,[13],7.5 µM (active)
same,IC50,[14],18.9 µM (active)
Cc1cc([N+](=O)[O-])cc(/C=N/n2c(C)nc3ccccc3c2=O)c1O,IC50,Albumin,> 94 µM (inactive)
same,EC50,Streptococcus,7.71 µM (active)
same,EC50,[7],8.39 µM (active)
